Laboratory results published in patent US10266495B2, “Phenyl quinolinone derivatives as mutant-isocitrate dehydrogenase inhibitors” (FORMA TM2, Inc., priority 2014, dated 2019).

What was measured:
[1] = test system: HCT116 isogenic IDH1-R132C mutant cells; experiment: Cellular 2-HG assay using HCT116 mutant IDH1 cells (R132C); format: cell-based; conditions: Homo sapiens, HCT-116; cellular 2-HG inhibition, 24 hours, RapidFire mass spectrometry; read-out: HCT116 IDH1 R132C IC50 Range
[2] = molecular target: IDH1-R132C recombinant protein (Homo sapiens, UniProt O75874, R132C); experiment: IDH1-R132C enzymatic assay (NADPH consumption, diaphorase/resazurin readout); format: biochemical; conditions: read-out: Enzyme IDH1 R132C IC50 Range
Experimental: Assays were performed in a 384-well black plate. An aliquot of 250 nL of compound was incubated with 10 μL of 30 nM IDH1-R132H or 10 nM IDH1-R132C recombinant protein in assay buffer (50 mM Tris pH=7.5, 150 mM NaCl, 5 mM MgCl2, 0.1% (w/v) Bovine Serum Albumin, and 0.01% Triton X-100) in each well at 25° C. for 15 minutes. After the plate was centrifuged briefly, an aliquot of 10 μL of 2 mM α-ketoglutarate and 20 μM NADPH solution prepared in assay buffer was then added to each well and the reaction was maintained at 25° C. for 45 minutes. An aliquot of 10 μL of diaphorase solution (0.15 U/mL diaphorase and 30 μM Resazurin in assay buffer) was added to each well. […] The IC50 of a given compound was calculated by fitting the dose response curve of inhibition of NADPH consumption at a given concentration with the four parameter logistic equation.

[3] = molecular target: IDH1-R132H recombinant protein (Homo sapiens, UniProt O75874, R132H); experiment: IDH1-R132H enzymatic assay (NADPH consumption, diaphorase/resazurin readout); format: biochemical; conditions: read-out: Enzyme IDH1 R132H IC50 Range
Method in brief: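 Compound was preincubated 15 min at 25 °C with recombinant IDH1-R132H (30 nM) or IDH1-R132C (10 nM) enzyme solution in 50 mM Tris pH 7.5, 150 mM NaCl, 5 mM MgCl2, 0.1% BSA and 0.01% Triton X-100. A solution of 2 mM α-ketoglutarate and 20 μM NADPH was then added for 45 min at 25 °C. Remaining NADPH was read by diaphorase/resazurin, and IC50 came from a four-parameter logistic fit of NADPH-consumption inhibition.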

[4] = test system: HCT116 isogenic IDH1-R132H mutant cells; experiment: Cellular 2-HG assay using HCT116 mutant IDH1 cells (R132H); format: cell-based; conditions: Homo sapiens, HCT-116; cellular 2-HG inhibition, 24 hours, RapidFire mass spectrometry; read-out: HCT116 IDH1 R132H IC50 Range

Chain of IDH1-R132H recombinant protein (O75874 whole entry R132H): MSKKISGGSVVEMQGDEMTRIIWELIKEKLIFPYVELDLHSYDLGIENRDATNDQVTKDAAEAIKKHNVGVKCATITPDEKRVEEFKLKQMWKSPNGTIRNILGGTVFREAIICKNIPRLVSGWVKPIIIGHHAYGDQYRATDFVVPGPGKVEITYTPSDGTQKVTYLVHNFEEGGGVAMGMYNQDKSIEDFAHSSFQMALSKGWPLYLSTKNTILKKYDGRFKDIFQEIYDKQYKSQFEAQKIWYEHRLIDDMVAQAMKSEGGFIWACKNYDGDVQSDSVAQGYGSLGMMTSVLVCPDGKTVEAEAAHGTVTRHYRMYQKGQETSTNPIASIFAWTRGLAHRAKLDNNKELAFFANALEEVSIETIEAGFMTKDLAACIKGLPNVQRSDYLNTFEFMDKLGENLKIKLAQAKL
Chain of IDH1-R132C recombinant protein (O75874 whole entry R132C): as the sequence (O75874 whole entry R132H) above, with H132C counted along it

IC50 [2]	IC50 [3]	SMILES	IC50 [1]	IC50 [4]
> 1 µM	0.01 to 0.1 µM	COc1cc(NCc2cc3cc(Cl)c(OC[C@@H]4CCCN4C)cc3[nH]c2=O)ccc1C#N [Compound I-94, 4-{[(6-chloro-7-{[(2S)-1-methylpyrrolidin-2-yl]methoxy}-2-oxo-1,2-dihydroquinolin-3-yl)methyl]amino}-2-methoxybenzonitrile]	–	–
> 1 µM	0.1 to 1 µM	COc1cc(NCc2cc3cc(Cl)cc(C)c3[nH]c2=O)ccc1C#N [Compound I-95, 4-{[(6-chloro-8-methyl-2-oxo-1,2-dihydroquinolin-3-yl)methyl]amino}-2-methoxybenzonitrile]	–	–
> 1 µM	0.1 to 1 µM	COc1cc(NCc2cc3cc(Cl)cc(OC)c3[nH]c2=O)ccc1C#N [Compound I-97, 4-{[(6-chloro-8-methoxy-2-oxo-1,2-dihydroquinolin-3-yl)methyl]amino}-2-methoxybenzonitrile]	–	–
> 1 µM	0.01 to 0.1 µM	COc1cc(NCc2cc3cc(Cl)cc(OCc4ccccn4)c3[nH]c2=O)ccc1C#N [Compound I-98, 4-({[6-chloro-2-oxo-8-(pyridin-2-ylmethoxy)-1,2-dihydroquinolin-3-yl]methyl}amino)-2-methoxybenzonitrile]	–	–
> 1 µM	0.1 to 1 µM	COc1cc(NCc2cc3cc(Cl)cc(OCCN4CCOCC4)c3[nH]c2=O)ccc1C#N [Compound I-99, 4-[({6-chloro-8-[2-(morpholin-4-yl)ethoxy]-2-oxo-1,2-dihydroquinolin-3-yl}methyl)amino]-2-methoxybenzonitrile]	–	–
> 1 µM	0.1 to 1 µM	COc1cc(NCc2cc3cc(Cl)cc(OCCN4CCCC4)c3[nH]c2=O)ccc1C#N [Compound I-100, 4-[({6-chloro-2-oxo-8-[2-(pyrrolidin-1-yl)ethoxy]-1,2-dihydroquinolin-3-yl}methyl)amino]-2-methoxybenzonitrile]	–	–

SMILES	IC50 [2]	IC50 [3]	IC50 [1]	IC50 [4]
COc1cc(N[C@@H](C)c2cc3cc(Cl)ccc3[nH]c2=O)ccc1C#N [Compound I-2, 4-{[(1S)-1-(6-chloro-2-oxo-1,2-dihydroquinolin-3-yl)ethyl]amino}-2-methoxybenzonitrile]	0.1 to 1 µM	0.01 to 0.1 µM	0.1 to 1 µM	< 0.01 µM
COc1cc(NCc2cc3cc(Cl)ccc3[nH]c2=O)ccc1C#N [Compound I-7, 4-{[(6-chloro-2-oxo-1,2-dihydroquinolin-3-yl)methyl]amino}-2-methoxybenzonitrile]	> 1 µM	0.1 to 1 µM	> 1 µM	0.1 to 1 µM
